Reference: article PMC13376213, “Systematic discovery of motif-based interactions of the auxiliary domains of USP family deubiquitinases” (Nature Communications, 2026)
Ends that are not written are not given here.

Experiments:
Type in all cases: binding
USP22 zf-UBP domain = molecular target: T1, USP22 zf-UBP domain (Homo sapiens, UniProt Q9UPT9); assay: FP-monitored affinity measurements, USP22 zf-UBP; conditions: USP22_zf-UBP; FP displacement by unlabelled peptide
T1 construct: USP22_zf-UBP; Q9UPT9; zf-UBP; 37; 130; 6xHis-GST (N, cleaved yes); made in house; host or cells: Escherichia coli BL21-Gold (DE3)
T1 sequence (Q9UPT9 37-130): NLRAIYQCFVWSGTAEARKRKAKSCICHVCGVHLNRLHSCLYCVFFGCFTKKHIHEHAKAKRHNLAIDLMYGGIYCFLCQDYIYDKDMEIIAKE
Procedure: (§1) Proteins were expressed in Escherichia coli (E.coli) BL21-Gold (DE3) bacteria. The cDNAs encoding N-terminal 6-histidine-glutathione S-transferase tagged (6xHis-GST), 6xHis-tagged or GST-tagged protein domains in pETM33, pETM11, pGEX6P1 expression vectors respectively, were obtained from Genescript or kindly provided by MRC-PPU (Suppl. Data 1) The bacteria were transformed with the plasmid and grew at 37 °C in 2YT (5 g/L NaCl, 16 g/L tryptone and 10 g/L yeast extract) supplemented with Kanamycin (30 μg/mL) until reaching an OD600 of 0.7. Protein expression was induced with 0.3 mM isopropyl β-D-1 thiogalactopyranoside (IPTG) for 18 h at 18 °C while shaking. For zinc-finger domains, 50 μM of ZnSO4 was added during expression. The bacterial cultures were pelleted for 15 minutes at 4000 x g at 4 °C and stored at −20 °C until purification. The pellets were resuspended in lysis buffer (1× phosphate-buffered saline (PBS), 0.5 % Triton-X, 5 mM MgCl2, 10 μg/mL lysozyme, cOmplete^TM EDTA-free protease inhibitor cocktail (Roche), 10 μg/mL DNAseI) and incubated for 1 h shaking at 4 °C. […] The supernatant was incubated with glutathione (GSH) Sepharose (Cytiva) or Ni2+ Sepharose (Cytiva) for 1 h at 4 °C while shaking. The beads with the bound protein were washed with 1x PBS and eluted with 10 mM reduced glutathione in 50 mM Tris pH 8.0. For fluorescence polarization experiments, the proteins were not eluted from the beads, and the 6xHis-GST tag was cleaved overnight on GSH Sepharose beads at 4 °C while shaking with PreScission Protease in cleavage buffer (50 mM Tris pH 7.5, 150 mM NaCl, 1 mM DTT). The sample containing the cleaved domain was separated from the tag and protease and buffer-exchanged to 50 mM sodium phosphate buffer pH 7.4 with 1 mM DTT using a PD-10 desalting column (Cytiva). The purity and size of the proteins were analyzed by SDS-PAGE electrophoresis.
(§2) The measurements were performed at room temperature in a non-binding black half area 96-well plate (Corning) with a total volume of 50 μL per well. Peptides were obtained from GeneCust (France) with >95% purity. FITC-labeled peptides (N-terminally FITC-labeled without spacer and C-terminally amidated) were dissolved in dimethyl sulfoxide (DMSO), and unlabeled peptides (N-terminally acetylated and C-terminally amidated) were dissolved in 50 mM phosphate buffer pH 7.4. Saturation measurements were performed using a serial dilution of the protein domains in phosphate buffer (25 μL) and the addition of 10 nM FITC-labeled peptide (in phosphate buffer supplemented with 2 mM DTT) (25 μL). […] All measurements were performed in three technical replicates. The data were analyzed using GraphPad Prism version 9.2.0 for MacOS (GraphPad Software, San Diego, California USA, www.graphpad.com). The saturation curves were fitted to the quadratic equation, and the displacement curves were fitted to a sigmoidal dose-response equation as described previously.

USP11 DUSP-UBL domain = molecular target: T2, USP11 DUSP-UBL domain (Homo sapiens, UniProt P51784); assay: FP-based affinity measurements, USP11 DUSP-UBL; conditions: competitive FP; technical triplicates; read-out: KD, USP11 DUSP-UBL, unlabeled peptide (competitive binding)
T2 construct: USP11_UBL; P51784; UBL; 6xHis-GST (N, cleaved yes); made in house; host or cells: Escherichia coli BL21-Gold (DE3)
T2 sequence (P51784 67-288): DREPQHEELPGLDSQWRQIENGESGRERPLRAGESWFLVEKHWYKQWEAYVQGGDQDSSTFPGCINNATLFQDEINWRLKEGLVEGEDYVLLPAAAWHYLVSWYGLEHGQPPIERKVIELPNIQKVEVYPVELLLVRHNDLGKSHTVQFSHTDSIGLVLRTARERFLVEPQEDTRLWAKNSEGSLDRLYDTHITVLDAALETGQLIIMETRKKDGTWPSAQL
Procedure: as §1
as §2, with “The saturation curves were fitted to the quadratic equation, and the displacement curves were fitted to a sigmoidal dose-response equation as described previously.” left out

USP33 zf-UBP domain = molecular target: T3, USP33 zf-UBP domain (Homo sapiens, UniProt Q8TEY7); assay: FP-monitored affinity measurements, USP33 zf-UBP; conditions: for Kd: USP33_UBP, FP displacement by unlabelled peptide, read-out: KD
T3 construct: USP33_UBP; Q8TEY7; zf-UBP; 36; 130; 6xHis-GST (N, cleaved yes); made in house; host or cells: Escherichia coli BL21-Gold (DE3)
T3 sequence (Q8TEY7 with tags, fused parts or gaps): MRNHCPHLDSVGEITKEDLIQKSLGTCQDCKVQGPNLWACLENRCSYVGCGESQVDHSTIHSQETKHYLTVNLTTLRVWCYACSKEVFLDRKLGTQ
Procedure: (§3) The measurements were performed at room temperature in a non-binding black half area 96-well plate (Corning) with a total volume of 50 μL per well. […] All measurements were performed in three technical replicates. […] The saturation curves were fitted to the quadratic equation, and the displacement curves were fitted to a sigmoidal dose-response equation as described previously[68].

USP20 zf-UBP domain = molecular target: T4, USP20 zf-UBP domain (Homo sapiens, UniProt Q9Y2K6); assay: FP-monitored affinity measurements, USP20 zf-UBP; conditions: for Kd: USP20_UBP, FP displacement by unlabelled peptide, read-out: KD
T4 construct: USP20_UBP; Q9Y2K6; zf-UBP; 99; 6xHis-GST (N, cleaved yes); made in house; host or cells: Escherichia coli BL21-Gold (DE3)
T4 sequence (Q9Y2K6 4-99): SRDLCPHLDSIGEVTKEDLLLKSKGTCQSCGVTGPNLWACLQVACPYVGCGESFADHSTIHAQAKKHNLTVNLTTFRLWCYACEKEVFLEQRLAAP
Procedure: as §3

[1] = FP-monitored affinity measurement (Supplementary Fig. 4D)

Row | Kd (USP22 zf-UBP domain) | Kd (USP20 zf-UBP domain) | Substance | other results
1 | 2.91 µM |  | Ac-VPSLDDFAGQSWSSWVERADLP-NH2 [ATXN7L2_18-39] | 
2 | 11 µM |  | Ac-VPSPEAFLGKPWSSWID-NH2 [ATXN7L1_36-52] | 
3 | 0.1 µM |  | Ac-VPSPEAFLGKPWSSWIDAAKLH-NH2 [ATXN7L1_36-57] | 
4 |  |  | SAVTYPDWIGQSYSEV [ORAI1_48-63] | Kd (USP11 DUSP-UBL domain): > 200 µM
5 |  | ~162 µM | YPFQPGRMALESQSPG [USP19] | Kd (USP33 zf-UBP domain): 40.6 µM
6 |  | 9.02 µM | YTNSSGKMALNSPQPG [IRAG1] | Kd (USP33 zf-UBP domain): 7.86 µM
7 |  | > 50 µM | ubiquitin C-terminus: ubiquitin C-terminal peptide (YLRLRGG) [reference compound] | binding of the ubiquitin C-terminus to USP33 zf-UBP (USP33 zf-UBP domain; [1]): do not bind the ubiquitin C-terminus with measurable affinity; binding of the ubiquitin C-terminus to USP20 zf-UBP (USP20 zf-UBP domain; [1]): do not bind the ubiquitin C-terminus with measurable affinity
